Where a name gives a salt, the structure may show the parent alone.
Test: Inhibition of Endothelin-converting enzyme of guinea pig lung membrane

IC50 [µM]	SMILES
0.16	CC(C)CC(CP(O)(O)=C(Cc1ccccc1)NC(=O)[C@H](CC(C)C)NC(=O)OCc1ccccc1)C(=O)N[C@@H](Cc1c[nH]c2ccccc12)C(=O)O (stereo partly drawn) [(S)-2-(2-{[1-((S)-2-Benzyloxycarbonylamino-4-methyl-pentanoylamino)-2-phenyl-ethyl]-hydroxy-phosphinoylmethyl}-4-methyl-pentanoylamino)-3-(1H-indol-3-yl)-propionic acid; Disodium salt]
0.065	CC(C)CC(CP(O)(O)=C(Cc1ccc2ccccc2c1)NC(=O)[C@H](CCCCN)NS(C)(=O)=O)C(=O)N[C@@H](Cc1c[nH]c2ccccc12)C(=O)O (stereo partly drawn) [(S)-2-(2-{[1-((S)-6-Amino-2-methanesulfonylamino-hexanoylamino)-2-naphthalen-2-yl-ethyl]-hydroxy-phosphinoylmethyl}-4-methyl-pentanoylamino)-3-(1H-indol-3-yl)-propionic acid; Disodium salt]
0.8	CC(C)C(CP(O)(O)=C(Cc1ccc2ccccc2c1)NC(=O)[C@H](CCCCNC(=O)OCc1ccccc1)NS(C)(=O)=O)C(=O)N[C@@H](Cc1c[nH]c2ccccc12)C(=O)O (stereo partly drawn) [(S)-2-(2-{[1-((S)-6-Benzyloxycarbonylamino-2-methanesulfonylamino-hexanoylamino)-2-naphthalen-2-yl-ethyl]-hydroxy-phosphinoylmethyl}-3-methyl-butyrylamino)-3-(1H-indol-3-yl)-propionic acid; Disodium salt]
0.39	CC(C)C(CP(O)(O)=C(Cc1ccccc1)NC(=O)[C@H](CCCCNC(=O)OCc1ccccc1)NS(C)(=O)=O)C(=O)N[C@@H](Cc1c[nH]c2ccccc12)C(=O)O (stereo partly drawn) [(S)-2-(2-{[1-((S)-6-Benzyloxycarbonylamino-2-methanesulfonylamino-hexanoylamino)-2-phenyl-ethyl]-hydroxy-phosphinoylmethyl}-3-methyl-butyrylamino)-3-(1H-indol-3-yl)-propionic acid; Disodium salt]
0.04	CC(C)CC(NC(=O)[C@H](CCCCNC(=O)OCc1ccccc1)NS(C)(=O)=O)=P(O)(O)CC(CC(C)C)C(=O)N[C@@H](Cc1c[nH]c2ccccc12)C(=O)O (stereo partly drawn) [(S)-2-(2-{[1-((S)-6-Benzyloxycarbonylamino-2-methanesulfonylamino-hexanoylamino)-3-methyl-butyl]-hydroxy-phosphinoylmethyl}-4-methyl-pentanoylamino)-3-(1H-indol-3-yl)-propionic acid; Disodium salt]

Test: Compound was tested for inhibitory activity against Endothelin-converting enzyme isolated from guinea pig lung membrane.

IC50 [µM]	SMILES
3.3	CC(C)CC(CP(O)(O)=C(Cc1ccc2ccccc2c1)NC(=O)OCc1ccccc1)C(=O)N[C@@H](Cc1c[nH]c2ccccc12)C(=O)O (stereo partly drawn) [(S)-2-{2-[(1-Benzyloxycarbonylamino-2-naphthalen-2-yl-ethyl)-hydroxy-phosphinoylmethyl]-4-methyl-pentanoylamino}-3-(1H-indol-3-yl)-propionic acid; Disodium salt]
